Experiments:
[1] = test system: Human immunodeficiency virus type 1 reverse transcriptase (Human immunodeficiency virus 1), Q72547 [K103N,P225H]
[2] = test system: HIV-1 reverse transcriptase (Human immunodeficiency virus 1); experiment: Compound was evaluated for its ability to inhibit the mutant K103N NNRTI HIV-1 enzyme
[3] = test system: HIV-1 reverse transcriptase (Human immunodeficiency virus 1); experiment: Compound was evaluated for its ability to inhibit the mutant K103N V1081NNRTI HIV-1 enzyme
[4] = test system: HIV-1 reverse transcriptase (Human immunodeficiency virus 1); experiment: Compound was evaluated for its ability to inhibit the mutant K103N L1001 NNRTI HIV-1 enzyme
[5] = test system: HIV-1 reverse transcriptase (Human immunodeficiency virus 1); experiment: Compound was evaluated for its ability to inhibit the NNRTI HIV-1 enzyme by 90% using whole cell assay
[6] = biological target: Human immunodeficiency virus type 1 reverse transcriptase (Human immunodeficiency virus 1, UniProt Q72547); experiment: Inhibition of the NNRTI HIV-1 enzyme by 50% using enzyme assay.
[7] = test system: Human immunodeficiency virus 1; experiment: Antiviral activity against HIV-1 in MT-2 (human leukemia) cells in vitro.; assay type: functional

| IC50 [6] [µM] | IC90 [7] [nM] | SMILES | other results |
| --- | --- | --- | --- |
| – | – | CCc1cc(C(C#CC2CC2)(OCc2ccccc2)C(F)(F)F)c(O)nc1C (stereo not given) | IC90 [1]: 283 nM; IC90 [2]: 113 nM; IC90 [3]: 1210 nM; IC90 [4]: 668 nM; IC90 [5]: 46 nM |
| 11.8 | 182 | Oc1ncccc1C(C#CC1CC1)(OCc1ccccc1)C(F)(F)F (stereo not given) | – |
| 0.77 | 201 | CCc1cc(C(C#CC2CC2)(OC)C(F)(F)F)c(O)nc1C (stereo not given) | – |
| 3.84 | 579 | CCc1cc(C(C#CC2CC2)(OCc2cc(OC)cc(OC)c2)C(F)(F)F)c(O)nc1C (stereo not given) | – |
| 8.11 | 431 | Oc1ncccc1C(C#CC1CC1)(OCc1ccncc1)C(F)(F)F (stereo not given) | – |
| 0.105 | 32 | CCCOC(C#CC1CC1)(c1cc(CC)c(C)nc1O)C(F)(F)F (stereo not given) | – |
| 1.35 | – | CCc1cc(C(C#CC2CC2)(OCc2ccccc2)C(F)(F)F)c(=O)[nH]c1C (stereo not given) | – |
| 11.7 | > 1300 | Oc1ncccc1C(C#Cc1ccccc1)(OCc1ccccc1)C(F)(F)F (stereo not given) | – |
| – | – | O=C1Nc2ccc(Cl)cc2[C@@](/C=C/C2CC2)(C(F)(F)F)N1 | IC90 [1]: 140 nM; IC90 [3]: 90 nM |
| 0.129 | 42 | CCCCOC(C#CC1CC1)(c1cc(CC)c(C)nc1O)C(F)(F)F (stereo not given) | – |
| 24.3 | > 1140 | Oc1ncccc1C(C#CC1CC1)(Oc1cccc(Oc2ccccc2)c1)C(F)(F)F (stereo not given) | – |
| 0.613 | 49 | CCc1cc(C(C#CC2CC2)(OCc2c(F)cccc2F)C(F)(F)F)c(O)nc1C (stereo not given) | – |
| 26 | 1010 | Oc1ncccc1C(C#CC1CC1)(OCc1ccccn1)C(F)(F)F (stereo not given) | – |
| – | 50 | CCc1cc(NCc2nc3c(Cl)ccc(Cl)c3o2)c(O)nc1C [L-697661] | – |
| 6.09 | 61 | CCc1cc(C(C#CC2CC2)(OCc2c(F)cccc2Cl)C(F)(F)F)c(O)nc1C (stereo not given) | – |
| 2.7 | 190 | CCc1cc(C(C#CC2CC2)(OCc2ccc(Cl)cc2Cl)C(F)(F)F)c(O)nc1C (stereo not given) | – |
| 43.9 | > 1300 | Oc1ncccc1C(/C=C/c1ccccc1)(OCc1ccccc1)C(F)(F)F (stereo not given) | – |
| 41.1 | 157 | CCc1cc(C(C#CC2CC2)(OCc2c(Cl)cccc2Cl)C(F)(F)F)c(O)nc1C (stereo not given) | – |
| 1.95 | 160 | CCc1cc(C(C#CC2CC2)(OCc2c(F)cccc2OC)C(F)(F)F)c(O)nc1C (stereo not given) | – |
| 1.84 | 1400 | CCc1cc(C(C#CC2CC2)(OCC#N)C(F)(F)F)c(O)nc1C (stereo not given) | – |
| 25.6 | > 1440 | Oc1ncccc1C(C#CC1CC1)(OCc1cccnc1)C(F)(F)F (stereo not given) | – |
| 0.183 | 95 | CCOC(C#CC1CC1)(c1cc(CC)c(C)nc1O)C(F)(F)F (stereo not given) | – |
| 0.188 | 37 | CCc1cc(C(C#CC2CC2)(OCC2CC2)C(F)(F)F)c(O)nc1C (stereo not given) | – |
| – | – | O=C1Nc2ccc(Cl)cc2[C@@](C#CC2CC2)(C(F)(F)F)N1 | IC90 [1]: 73 nM; IC90 [2]: 10 nM; IC90 [3]: 38 nM; IC90 [5]: 2 nM |
| 16.7 | > 1400 | Oc1ncccc1C(/C=C/C1CC1)(OCc1ccccc1)C(F)(F)F (stereo not given) | – |
| 36 | 579 | Oc1nc2ccccc2cc1C(C#CC1CC1)(OCc1ccccc1)C(F)(F)F (stereo not given) | – |
